Results from the supplement of paper PMC10307832.

Tests used:
Assay in all cases: relative viability (nuclei count vs DMSO), 5 days (fraction); higher = more cells survive
[1] = test system: 201T
Summary of the method: (§1)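 Relative viability is defined as nuclei in treated wells over nuclei in vehicle wells. Duplicate plates were run and medians reported. Lung cancer cell lines in 1536-well plates were dosed by pin tool one day after seeding, with one drug or with a fixed anchor-drug dose plus five library-drug doses (not always all listed) in √10 steps, and nuclei were counted after 5 days.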

[2] = test system: A-427
Summary of the method: as §1

[3] = test system: ABC-1
Summary of the method: as §1

[4] = test system: BEN
Summary of the method: as §1

[5] = test system: CAL-12T
Summary of the method: as §1

[6] = test system: H3255
Summary of the method: as §1

[7] = test system: LC-2-ad
Summary of the method: as §1

[8] = test system: LCLC-97TM1
Summary of the method: as §1

[9] = test system: NCI-H1650
Summary of the method: as §1

[10] = test system: NCI-H1651
Summary of the method: as §1

[11] = test system: NCI-H1792
Summary of the method: as §1

[12] = test system: NCI-H1915
Summary of the method: as §1

[13] = test system: NCI-H2023
Summary of the method: as §1

[14] = test system: NCI-H2087
Summary of the method: as §1

[15] = test system: NCI-H441
Summary of the method: as §1

[16] = test system: NCI-H460
Summary of the method: as §1

[17] = test system: NCI-H520
Summary of the method: as §1

[18] = test system: NCI-H596
Summary of the method: as §1

[19] = test system: NCI-H650
Summary of the method: as §1

[20] = test system: NCI-H661
Summary of the method: as §1

[21] = test system: NCI-H727
Summary of the method: as §1

[22] = test system: PC-3 [JPC-3]
Summary of the method: as §1

`C=C1C(=O)O[C@@H](CCCCCCCC)[C@@H]1C(=O)O` [C-75] + CC(C)C[C@H](NC(=O)[C@H](Cc1ccccc1)NC(=O)c1cnccn1)B(O)O [Bortezomib] (partner 0.002 µM) showed a relative viability ([1]; first compound 0.08 µM) of 1.07, a relative viability ([1]; first compound 0.253 µM) of 1.24 and a relative viability ([1]; first compound 0.8 µM) of 1.08. It also gave a relative viability ([1]; first compound 2.53 µM) of 1.15, a relative viability ([1]; first compound 8 µM) of 1.08 and a relative viability ([2]; first compound 0.08 µM) of 1.01. The relative viability ([2]; first compound 0.253 µM) was 0.988, the relative viability ([2]; first compound 0.8 µM) was 1.02 and the relative viability ([2]; first compound 2.53 µM) was 0.78. For the same compound, the relative viability ([2]; first compound 8 µM) was 1.12, the relative viability ([3]; first compound 0.08 µM) was 0.295 and the relative viability ([3]; first compound 0.253 µM) was 0.314. For the same compound, the relative viability ([3]; first compound 0.8 µM) was 0.373, the relative viability ([3]; first compound 2.53 µM) was 0.178 and the relative viability ([3]; first compound 8 µM) was 0.234. The relative viability ([4]; first compound 0.08 µM) was 0.847, the relative viability ([4]; first compound 0.253 µM) was 0.868 and the relative viability ([4]; first compound 0.8 µM) was 0.666. For the same compound, the relative viability ([4]; first compound 2.53 µM) was 0.639, the relative viability ([4]; first compound 8 µM) was 0.653 and the relative viability ([5]; first compound 0.08 µM) was 0.949. It also gave a relative viability ([5]; first compound 0.253 µM) of 0.967, a relative viability ([5]; first compound 0.8 µM) of 0.758 and a relative viability ([5]; first compound 2.53 µM) of 0.946. The relative viability ([5]; first compound 8 µM) was 0.928, the relative viability ([6]; first compound 0.08 µM) was 0.841 and the relative viability ([6]; first compound 0.253 µM) was 0.811. The relative viability ([6]; first compound 0.8 µM) was 0.715, the relative viability ([6]; first compound 2.53 µM) was 0.799 and the relative viability ([6]; first compound 8 µM) was 0.8. For the same compound, the relative viability ([7]; first compound 0.08 µM) was 1.04, the relative viability ([7]; first compound 0.253 µM) was 0.97 and the relative viability ([7]; first compound 0.8 µM) was 0.985. The relative viability ([7]; first compound 8 µM) was 0.961, the relative viability ([8]; first compound 0.08 µM) was 0.636 and the relative viability ([8]; first compound 0.253 µM) was 0.595. For the same compound, the relative viability ([8]; first compound 0.8 µM) was 0.222, the relative viability ([8]; first compound 2.53 µM) was 0.477 and the relative viability ([8]; first compound 8 µM) was 0.218. For the same compound, the relative viability ([9]; first compound 0.08 µM) was 0.223, the relative viability ([9]; first compound 0.253 µM) was 0.212 and the relative viability ([9]; first compound 0.8 µM) was 0.198. The relative viability ([9]; first compound 2.53 µM) was 0.158, the relative viability ([9]; first compound 8 µM) was 0.187 and the relative viability ([10]; first compound 0.08 µM) was 0.92. It also gave a relative viability ([10]; first compound 0.253 µM) of 0.894, a relative viability ([10]; first compound 0.8 µM) of 0.875 and a relative viability ([10]; first compound 2.53 µM) of 0.843. For the same compound, the relative viability ([10]; first compound 8 µM) was 0.886, the relative viability ([11]; first compound 0.08 µM) was 0.979 and the relative viability ([11]; first compound 0.253 µM) was 0.881. It also gave a relative viability ([11]; first compound 0.8 µM) of 0.845, a relative viability ([11]; first compound 2.53 µM) of 0.295 and a relative viability ([11]; first compound 8 µM) of 0.886. The relative viability ([12]; first compound 0.08 µM) was 0.89, the relative viability ([12]; first compound 0.253 µM) was 0.977 and the relative viability ([12]; first compound 0.8 µM) was 0.935. For the same compound, the relative viability ([12]; first compound 2.53 µM) was 0.81, the relative viability ([12]; first compound 8 µM) was 0.922 and the relative viability ([13]; first compound 0.08 µM) was 1.04. The relative viability ([13]; first compound 0.253 µM) was 1.22, the relative viability ([13]; first compound 0.8 µM) was 0.902 and the relative viability ([13]; first compound 2.53 µM) was 0.843. The relative viability ([13]; first compound 8 µM) was 0.835, the relative viability ([14]; first compound 0.08 µM) was 0.724 and the relative viability ([14]; first compound 0.253 µM) was 0.863. For the same compound, the relative viability ([14]; first compound 0.8 µM) was 0.743, the relative viability ([14]; first compound 2.53 µM) was 0.396 and the relative viability ([14]; first compound 8 µM) was 0.581. The relative viability ([15]; first compound 0.08 µM) was 0.497, the relative viability ([15]; first compound 0.253 µM) was 0.259 and the relative viability ([15]; first compound 0.8 µM) was 0.447. It also gave a relative viability ([15]; first compound 2.53 µM) of 0.315, a relative viability ([15]; first compound 8 µM) of 0.26 and a relative viability ([16]; first compound 0.08 µM) of 1.05. It also gave a relative viability ([16]; first compound 0.253 µM) of 1.22, a relative viability ([16]; first compound 0.8 µM) of 0.982 and a relative viability ([16]; first compound 8 µM) of 0.945. The relative viability ([17]; first compound 0.08 µM) was 0.442, the relative viability ([17]; first compound 0.253 µM) was 0.425 and the relative viability ([17]; first compound 0.8 µM) was 0.578. It also gave a relative viability ([17]; first compound 2.53 µM) of 0.337, a relative viability ([17]; first compound 8 µM) of 0.58 and a relative viability ([18]; first compound 0.08 µM) of 1.18. For the same compound, the relative viability ([18]; first compound 0.253 µM) was 1.18, the relative viability ([18]; first compound 0.8 µM) was 0.871 and the relative viability ([18]; first compound 2.53 µM) was 0.996. The relative viability ([18]; first compound 8 µM) was 0.988, the relative viability ([19]; first compound 0.08 µM) was 0.828 and the relative viability ([19]; first compound 0.253 µM) was 0.691. For the same compound, the relative viability ([19]; first compound 0.8 µM) was 0.547, the relative viability ([19]; first compound 2.53 µM) was 0.745 and the relative viability ([19]; first compound 8 µM) was 0.586. For the same compound, the relative viability ([20]; first compound 0.08 µM) was 0.696, the relative viability ([20]; first compound 0.253 µM) was 0.873 and the relative viability ([20]; first compound 0.8 µM) was 0.731. It also gave a relative viability ([20]; first compound 2.53 µM) of 0.973, a relative viability ([20]; first compound 8 µM) of 0.655 and a relative viability ([21]; first compound 0.08 µM) of 0.773. It also gave a relative viability ([21]; first compound 0.253 µM) of 1.32, a relative viability ([21]; first compound 0.8 µM) of 0.614 and a relative viability ([21]; first compound 2.53 µM) of 0.582. The relative viability ([21]; first compound 8 µM) was 0.99, the relative viability ([22]; first compound 0.08 µM) was 0.826 and the relative viability ([22]; first compound 0.253 µM) was 0.839. It also gave a relative viability ([22]; first compound 0.8 µM) of 0.826, a relative viability ([22]; first compound 2.53 µM) of 0.581 and a relative viability ([22]; first compound 8 µM) of 0.836.
